Results published in patent publication US20030215462A1, “Use of UGT inhibitors to increase bioavailability” (priority 2001, published 2003).
“And” between values parts separate entries of the source, which are not always exact repeats. Equal values may be shown once.

What was measured:
[1] = system: T1, UGT enzymes of human liver microsomes; experiment: Inhibition of estradiol (E2) glucuronidation in human liver microsomes; type: biochemical; settings: liver 032101, E2 50 μM
T1 construct: residual metabolism (% of control), E2-3-β-D-glucuronide; other: liver 032101; residual metabolism (% of control), E2-3-β-D-glucuronide
Description: (§1) Compounds were eluted using a binary solvent gradient system where solvent A was dilute phosphoric acid (pH 3) and solvent B was 80:20 acetonitrile-methanol. […] Detection was at 280 nm.

[2] = system: T2, UGT enzymes of human liver microsomes; experiment: as above; type: biochemical; settings: liver 032101, E2 50 μM
T2 construct: residual metabolism (% of control), E2-17-β-D-glucuronide; other: liver 032101; residual metabolism (% of control), E2-17-β-D-glucuronide
Description: as §1

[3] = system: UGT enzymes of human liver microsomes; experiment: as above; type: biochemical; settings: E2 50 μM
Description: as §1

[4] = system: UGT enzymes of pooled human jejunum microsomes; experiment: Inhibition of raloxifene glucuronidation (G1, G2) in pooled human jejunum microsomes; type: biochemical; settings: jejunum HJ61; inhibitor 50 μM
Protocol: Compounds were eluted using a binary solvent gradient system. […] Solvent B was methanol. […] Detection was at 280 nm.
Standardized incubations utilized […] microsomal protein, 1 mM UDPGA and a 30 min incubation time.

[5] = target: T3, UGT1A10 (Homo sapiens, UniProt Q9HAW8); experiment: Inhibition of raloxifene glucuronidation by recombinant UGT1A10 Bacculosomes; settings: UGT1A10
T3 sequence (Q9HAW8 26-530): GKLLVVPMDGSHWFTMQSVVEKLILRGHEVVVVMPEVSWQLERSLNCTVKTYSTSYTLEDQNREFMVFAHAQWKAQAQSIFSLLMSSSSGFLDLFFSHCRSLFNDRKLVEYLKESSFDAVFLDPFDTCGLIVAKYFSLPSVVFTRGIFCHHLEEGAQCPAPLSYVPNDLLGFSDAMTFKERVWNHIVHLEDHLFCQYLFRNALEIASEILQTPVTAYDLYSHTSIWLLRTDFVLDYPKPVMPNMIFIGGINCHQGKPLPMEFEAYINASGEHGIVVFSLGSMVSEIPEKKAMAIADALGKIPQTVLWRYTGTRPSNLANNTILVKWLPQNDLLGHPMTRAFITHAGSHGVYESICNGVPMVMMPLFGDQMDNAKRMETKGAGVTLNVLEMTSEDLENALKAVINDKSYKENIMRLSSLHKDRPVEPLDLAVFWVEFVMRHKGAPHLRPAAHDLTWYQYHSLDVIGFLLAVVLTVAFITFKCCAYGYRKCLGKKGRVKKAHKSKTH
Protocol: (§2) Compounds were eluted using a binary solvent gradient system. Solvent A was water brought to pH 8 with NH4OH. Solvent B was methanol. Solvent flow rate was 1 ml/min and the column temperature was maintained at 50° C. Detection was at 280 nm. […] The system was then returned to the initial conditions and equilibrated for 3 min.

[6] = target: T4, UGT1A1 (Homo sapiens, UniProt P22309); experiment: Inhibition of raloxifene glucuronidation by recombinant UGT1A1 Supersomes; settings: UGT1A1
T4 sequence (P22309 26-533): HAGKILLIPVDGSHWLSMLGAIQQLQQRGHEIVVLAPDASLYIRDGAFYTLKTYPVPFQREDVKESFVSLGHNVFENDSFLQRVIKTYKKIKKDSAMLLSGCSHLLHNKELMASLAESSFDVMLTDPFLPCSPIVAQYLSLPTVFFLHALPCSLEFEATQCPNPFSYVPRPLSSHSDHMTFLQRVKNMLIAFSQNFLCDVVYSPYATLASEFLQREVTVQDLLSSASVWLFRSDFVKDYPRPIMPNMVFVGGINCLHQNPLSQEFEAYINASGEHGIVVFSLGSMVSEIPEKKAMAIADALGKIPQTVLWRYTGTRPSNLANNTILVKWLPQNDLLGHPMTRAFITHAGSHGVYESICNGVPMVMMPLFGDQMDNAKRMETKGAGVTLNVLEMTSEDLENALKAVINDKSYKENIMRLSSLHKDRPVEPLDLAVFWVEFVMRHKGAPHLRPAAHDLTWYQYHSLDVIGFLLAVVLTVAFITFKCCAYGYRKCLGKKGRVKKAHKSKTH
Protocol: as §2

[7] = system: UGT enzymes of pooled human jejunum microsomes; experiment: Inhibition of estradiol (E2) glucuronidation in pooled human jejunum microsomes; type: biochemical; settings: jejunum HJ61, E2 50 μM
Description: as §1

[8] = system: T5, UGT enzymes of human liver microsomes; experiment: Inhibition of 7-HFC glucuronidation in human liver microsomes; type: biochemical; settings: for % of control metabolism (SD, n = 3), 7-HFC glucuronidation: 7-HFC 50 μM, human liver microsomes 100 μg/ml, 15 min
T5 construct: percentage of control metabolism, 7-HFC glucuronidation; percentage of control metabolism, 7-HFC glucuronidation

[9] = target: T6, UGT1A3 (Homo sapiens, UniProt P35503); experiment: Inhibition of raloxifene glucuronidation by recombinant UGT1A3 Supersomes; settings: for activity at 15 min, 10 µM / activity at 15 min, 25 µM / activity at 15 min, 50 µM: human; for activity at 15 min, 10 µM: inhibitor 10 μM; for activity at 15 min, 25 µM: inhibitor 25 μM; for activity at 15 min, 50 µM: inhibitor 50 μM
T6 sequence (P35503 29-534): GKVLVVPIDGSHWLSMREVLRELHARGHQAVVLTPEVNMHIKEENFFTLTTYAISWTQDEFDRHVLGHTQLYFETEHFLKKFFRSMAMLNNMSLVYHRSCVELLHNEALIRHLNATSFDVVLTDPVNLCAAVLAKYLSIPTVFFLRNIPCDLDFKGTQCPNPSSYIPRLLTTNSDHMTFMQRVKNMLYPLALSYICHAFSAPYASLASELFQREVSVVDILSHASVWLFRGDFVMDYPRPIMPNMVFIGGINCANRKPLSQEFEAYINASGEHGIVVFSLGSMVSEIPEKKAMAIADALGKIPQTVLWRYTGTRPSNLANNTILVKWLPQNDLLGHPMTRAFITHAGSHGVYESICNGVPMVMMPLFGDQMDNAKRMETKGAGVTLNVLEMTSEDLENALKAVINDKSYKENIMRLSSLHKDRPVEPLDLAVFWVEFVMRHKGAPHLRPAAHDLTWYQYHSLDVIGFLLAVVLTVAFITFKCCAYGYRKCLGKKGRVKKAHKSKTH
Protocol: as §2

[10] = Supersomes with recombinant human UGT1A3, pH 7.5, probe raloxifene 50 μM, formation of glucuronide G1, % of control metabolism, raloxifene G1, UGT1A3
[11] = Supersomes with recombinant human UGT1A3, pH 7.5, probe raloxifene 50 μM, formation of glucuronide G2, % of control metabolism, raloxifene G2, UGT1A3
[12] = recombinant UGT1A3 Supersomes, pH 7.5, probe raloxifene 50 μM (formation of glucuronide G1), Inhibition of raloxifene glucuronidation, G1, UGT1A3, G1, raloxifene 50 μM, 250 μg/ml Supersomes, 1 mM UDPGA, 15 min
[13] = recombinant UGT1A3 Supersomes, pH 7.5, probe raloxifene 50 μM (formation of glucuronide G2), Inhibition of raloxifene glucuronidation, G2, UGT1A3, G2, raloxifene 50 μM, 250 μg/ml Supersomes, 1 mM UDPGA, 15 min

O=c1c(O)c(-c2ccc(O)c(O)c2)oc2cc(O)cc(O)c12 [Quercetin]
residual metabolism (% of control), E2-3-β-D-glucuronide ([1]; inhibitor 50 μM): 29 (1) %
residual metabolism (% of control), E2-3-β-D-glucuronide ([1]; inhibitor 100 μM): 10 (1) %
residual metabolism (% of control), E2-17-β-D-glucuronide ([2]; inhibitor 50 μM): 72 (6) %
residual metabolism (% of control), E2-17-β-D-glucuronide ([2]; inhibitor 100 μM): 50 (3) %
residual metabolism (% of control), E2-3-β-D-glucuronide ([3]; liver 032101, inhibitor 25 μM): 58 (1) %
residual metabolism (% of control), E2-17-β-D-glucuronide ([3]; liver 032101, inhibitor 25 μM): 94 (3) %
residual metabolism (% of control), E2-3-β-D-glucuronide ([3]; liver 062101, inhibitor 25 μM): 56 (3) %
residual metabolism (% of control), E2-17-β-D-glucuronide ([3]; liver 062101, inhibitor 25 μM): 83 (1) %
residual metabolism (% of control), E2-3-β-D-glucuronide ([3]; liver 062101, inhibitor 50 μM): 30 (1) %
residual metabolism (% of control), E2-17-β-D-glucuronide ([3]; liver 062101, inhibitor 50 μM): 69 (1) %
residual metabolism (% of control), E2-3-β-D-glucuronide ([3]; liver 062101, inhibitor 100 μM): 19 (1) %
residual metabolism (% of control), E2-17-β-D-glucuronide ([3]; liver 062101, inhibitor 100 μM): 57 (2) %
% of control metabolism, raloxifene G1 [4]: 25 (1) %
% of control metabolism, raloxifene G2 [4]: 37 (2) %
inhibition of raloxifene glucuronidation, in words [5]: only a modest effect
inhibition of raloxifene glucuronidation, in words [6]: good inhibitor
residual metabolism (% of control), E2-3-β-D-glucuronide ([7]; inhibitor 25 μM): 44 (5) %
residual metabolism (% of control), E2-17-β-D-glucuronide ([7]; inhibitor 25 μM): 72 (3) %
residual metabolism (% of control), E2-3-β-D-glucuronide ([7]; inhibitor 50 μM): 29 (2) %
residual metabolism (% of control), E2-17-β-D-glucuronide ([7]; inhibitor 50 μM): 56 (2) %
residual metabolism (% of control), E2-3-β-D-glucuronide ([7]; inhibitor 100 μM): 12 (1) %
residual metabolism (% of control), E2-17-β-D-glucuronide ([7]; inhibitor 100 μM): 42 (7) %
percentage of control metabolism, 7-HFC glucuronidation ([8]; inhibitor 100 μM): 58 (1) %
% of control metabolism (SD, n = 3), 7-HFC glucuronidation ([8]; inhibitor 100 μM): 58 (1) %
percentage of control metabolism, 7-HFC glucuronidation ([8]; inhibitor 200 μM): 53 (1) %
% of control metabolism (SD, n = 3), 7-HFC glucuronidation ([8]; inhibitor 200 μM): 53 (1) %
percentage of control metabolism, 7-HFC glucuronidation ([8]; inhibitor 500 μM): 52 (1) %
% of control metabolism (SD, n = 3), 7-HFC glucuronidation ([8]; inhibitor 500 μM): 52 (1), % and 62 (1) %
inhibition of raloxifene glucuronidation, in words ([9]; UGT1A3): good inhibitor
activity at 15 min, 10 µM [9, 10]: 81%
activity at 15 min, 25 µM [9, 10]: 53%
activity at 15 min, 50 µM [9, 10]: 28%
activity at 15 min, 10 µM [9, 11]: 56%
activity at 15 min, 25 µM [9, 11]: 49%
activity at 15 min, 50 µM [9, 11]: 25%
activity at 15 min, 10 µM [9, 12]: 72%
activity at 15 min, 25 µM [9, 12]: 52%
activity at 15 min, 50 µM [9, 12]: 28%
activity at 15 min, 10 µM [9, 13]: 73%
activity at 15 min, 25 µM [9, 13]: 49%
activity at 15 min, 50 µM [9, 13]: 25%
